Reference: patent US20250011316A1, “PEROXIREDOXIN 3 INHIBITORS AND METHODS OF USE FOR TREATING CANCER” (Wake Forest University Health Sciences, priority 2022, published 2025)
≈ marks a conversion by molar mass, not a printed value.

Legend:
Solubility Assay (HPLC) = type: physicochemical; settings: HEPES/NaCl buffer, aqueous with cosolvent or surfactant or cyclodextrin, kinetic from dmso stock; 20 mM HEPES, 100 mM NaCl, pH 7.5, 18-24 hours at ambient temperature; read-out: Solubility
Outline: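 Compound from 20 mM DMSO stock added to 20 mM HEPES, 100 mM NaCl, pH 7.5, rotated 18-24 h at ambient temperature, then centrifuged 10 min at 20,000×g to remove solids. Supernatant diluted in DMSO and quantified by HPLC peak area against the closest of 200 μM and 20 μM standards, corrected for dilution.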

purified human PRX3 = molecular target: T1, purified human PRX3 (Homo sapiens, UniProt P30048); test: Biochemical PRX3 Inhibition Assay (non-reducible crosslink by SDS PAGE + single adduct by MALDI-TOF MS); settings: 100 μM PRX3 with TRX2/thioredoxin reductase/NADPH system and hydrogen peroxide, 1-2 hr at 37° C.
T1 construct: made in house
T1 sequence (P30048 62-256): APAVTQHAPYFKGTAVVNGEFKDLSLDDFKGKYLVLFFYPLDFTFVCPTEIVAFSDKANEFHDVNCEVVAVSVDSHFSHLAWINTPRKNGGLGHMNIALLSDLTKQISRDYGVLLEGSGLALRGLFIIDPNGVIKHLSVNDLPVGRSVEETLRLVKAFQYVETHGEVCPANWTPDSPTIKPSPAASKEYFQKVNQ
Outline: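 Purified human PRX3 (100 µM) cycled with TRX2, thioredoxin reductase, NADPH regenerating system and H2O2, incubated with compound 1–2 h at 37 °C. Non-reducible crosslink quantified by densitometry of SDS-PAGE (~46 vs ~23 kDa) after DTT; single-adduct fraction from MALDI-TOF MS peak intensities, background-corrected against DMSO.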

[1] = test system: human SK—OV-3 ovarian cancer cells; test: Cellular Activity Assay (cytotoxicity, crystal violet); type: cell-based; settings: SK—OV-3 cells, treated for 48 hr, 0.1-100 μM, crystal violet absorbance at 540 nm
Outline: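 SK-OV-3 cells plated, allowed 24 h recovery, then treated 48 hr with compound at 0.1-100 μM. Live cells were fixed (3.0% formaldehyde), stained with 0.1% crystal violet and read at 540 nm. EC50 was fitted after normalizing to matched-DMSO controls.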

[2] = test system: Enterococcus hirae (ATCC #10541); test: Antimicrobial Activity Assay (MIC / growth inhibition); type: cell-based; settings: ATCC10541; Enterococcus hirae; analogs tested at 20 μM final concentration
Experimental: The overnight growth was then diluted into growth media to make a single solution of E. hirae with a final optical density at 600 nm=0.02 AU. A 20 mM stock solution of Thiostrepton in DMSO was made and used to make multiple dilutions of TS in DMSO. Each TS dilution (0.1 mL) was then added to a test tube containing 10 mL of the diluted E. hirae and grown at 37° C. overnight while shaking at 180 rpm. The next morning, each tube was visually inspected to determine if the cells grew. Final concentrations tested were 0.120, 0.090, 0.075, 0.060, 0.045, 0.030, and 0.015 μM TS. […] Three replicates were made on three separate days (n=9). […] For TS analogs, the dilute E. hirae was treated with 20 μM final concentration of each analog (three replicates each). […] DMSO was used as a positive control (complete cell growth) and 20 μM thiostrepton was used as a negative control.

| Structure (SMILES) | solubility (Solubility Assay (HPLC)) | PRX3 Inhibition (Crosslink + Mono-adduct) (purified human PRX3) | MIC [2] | EC50 ([1]; Homo sapiens) | EC50 ([1]; Homo sapiens, SK-OV-3, 48 h) | EC50 [1] |
| --- | --- | --- | --- | --- | --- | --- |
| C=C(NC(=O)c1csc(N2CCC(NC(=O)OC(C)(C)C)CC2)n1)C(=O)NC(=C)C(=O)OC [Compound 12, Methyl 2-(2-(2-(4-((tert-butoxycarbonyl)amino)piperidin-1-yl)thiazole-4-carboxamido)acrylamido)acrylate] | < 100 µM | +++ (>90%) | > 20 µM | 1 to 10 µM | – | – |
| C=C(NC(=O)c1csc(N2CCC(NC(=O)CCCCCNC(=O)OC(C)(C)C)CC2)n1)C(=O)NC(=C)C(=O)OC [Compound 13, Methyl 2-(2-(2-(4-(6-((tert-butoxycarbonyl)amino)hexanamido)piperidin-1-yl)thiazole-4-carboxamido)acrylamido)acrylate] | 100 to 1000 µM (≈ 59.3 to 593 µg/mL) | +++ (>90%) | > 20 µM | – | 1 to 10 µM | – |
| C=C(NC(=O)c1csc(N2CCC(C(=O)NCCNC(=O)OC(C)(C)C)CC2)n1)C(=O)NC(=C)C(=O)OC [Compound 15, Methyl 2-(2-(2-(4-((2-((tert-butoxycarbonyl)amino)ethyl)carbamoyl)piperidin-1-yl)thiazole-4-carboxamido)acrylamido)acrylate] | < 100 µM | +++ (>90%) | > 20 µM | 1 to 10 µM | – | – |
| C=C(NC(=O)c1csc(-c2ccc(CNC(=O)CCCCCNC(=O)OC(C)(C)C)cc2)n1)C(=O)NC(=C)C(=O)OC [Compound 16, Methyl 2-(2-(2-(4-((6-((tert-butoxycarbonyl)amino)hexanamido)methyl)phenyl)thiazole-4-carboxamido)acrylamido)acrylate] | < 100 µM | +++ (>90%) | > 20 µM | – | – | 10 to 25 µM |
| C=C(NC(=O)c1csc(N2CCC[C@H](NC(=O)OC(C)(C)C)C2)n1)C(=O)NC(=C)C(=O)OC [Compound 20, Methyl (S)-2-(2-(2-(3-((tert-butoxycarbonyl)amino)piperidin-1-yl)thiazole-4-carboxamido)acrylamido)acrylate] | < 100 µM | +++ (>90%) | > 20 µM | 1 to 10 µM | – | – |
| C=C(NC(=O)c1csc(-c2cccc(COCCOC)c2)n1)C(=O)NC(=C)C(=O)OC [Compound 27, Methyl 2-(2-(2-(3-((2-methoxyethoxy)methyl)phenyl)thiazole-4-carboxamido)acrylamido)acrylate] | < 100 µM | +++ (>90%) | > 20 µM | 1 to 10 µM | – | – |
| C=C(NC(=O)c1csc(N2CCCC(C(=O)NCC(C)C)C2)n1)C(=O)NC(=C)C(=O)OC (stereo not shown) [Compound 28, Methyl 2-(2-(2-(3-(isobutylcarbamoyl)piperidin-1-yl)thiazole-4-carboxamido)acrylamido)acrylate] | < 100 µM | +++ (>90%) | > 20 µM | 1 to 10 µM | – | – |
| C=C(NC(=O)c1csc(N2CCC(C(=O)NCCCOC(C)C)CC2)n1)C(=O)NC(=C)C(=O)OC [Compound 29, Methyl 2-(2-(2-(4-((3-isopropoxypropyl)carbamoyl)piperidin-1-yl)thiazole-4-carboxamido)acrylamido)acrylate] | 100 to 1000 µM (≈ 50.8 to 508 µg/mL) | +++ (>90%) | > 20 µM | 1 to 10 µM | – | – |
| C=C(NC(=O)c1csc(-c2ccc(COC(=O)NCc3ccccc3)cc2)n1)C(=O)NC(=C)C(=O)OC [Compound 30, Methyl 2-(2-(2-(4-(((benzylcarbamoyl)oxy)methyl)phenyl)thiazole-4-carboxamido)acrylamido)acrylate] | < 100 µM | + (5-50%) | > 20 µM | 25 to 100 µM | – | – |

Continued, in another order:

| solubility (Solubility Assay (HPLC)) | PRX3 Inhibition (Crosslink + Mono-adduct) (purified human PRX3) | MIC [2] | Structure (SMILES) | EC50 ([1]; Homo sapiens) | EC50 ([1]; Homo sapiens, SK-OV-3, 48 h) | EC50 [1] |
| --- | --- | --- | --- | --- | --- | --- |
| < 100 µM | +++ (>90%) | > 20 µM | C=C(NC(=O)c1csc(-c2cccc(C(=O)OC(C)(C)C)c2)n1)C(=O)NC(=C)C(=O)OC [Compound 14, Tert-butyl 3-(4-((3-((3-methoxy-3-oxoprop-1-en-2-yl)amino)-3-oxoprop-1-en-2-yl)carbamoyl)thiazol-2-yl)benzoate] | 25 to 100 µM | – | – |
| 100 to 1000 µM (≈ 36.6 to 366 µg/mL) | +++ (>90%) | > 20 µM | C=C(NC(=O)c1csc(N2CCOCC2)n1)C(=O)NC(=C)C(=O)OC [Compound 17, Methyl 2-(2-(2-morpholinothiazole-4-carboxamido)acrylamido)acrylate] | 10 to 25 µM | – | – |
| 100 to 1000 µM (≈ 46.6 to 466 µg/mL) | + (5-50%) | > 20 µM | C=C(NC(=O)c1csc(N2CCN(C(=O)OC(C)(C)C)CC2)n1)C(=O)NC(=C)C(=O)OC [Compound 18, Tert-butyl 4-(4-((3-((3-methoxy-3-oxoprop-1-en-2-yl)amino)-3-oxoprop-1-en-2-yl)carbamoyl)thiazol-2-yl)piperazine-1-carboxylate] | 25 to 100 µM | – | – |
| < 100 µM | +++ (>90%) | > 20 µM | C=C(NC(=O)c1csc(N2CCC(NC(=O)CCCCCN=[N+]=[N-])CC2)n1)C(=O)NC(=C)C(=O)OC [Compound 19, Methyl 2-(2-(2-(4-(6-azidohexanamido)piperidin-1-yl)thiazole-4-carboxamido)acrylamido)acrylate] | 1 to 10 µM | – | – |
| < 100 µM | +++ (>90%) | > 20 µM | C=C(NC(=O)c1csc(N2CCC(N(C)C(=O)OCC)CC2)n1)C(=O)NC(=C)C(=O)OC [Compound 21, Methyl 2-(2-(2-(4-((ethoxycarbonyl)(methyl)amino)piperidin-1-yl)thiazole-4-carboxamido)acrylamido)acrylate] | 1 to 10 µM | – | – |
| < 100 µM | +++ (>90%) | > 20 µM | C=C(NC(=O)c1csc(N2CCC(CNC(=O)OCC)CC2)n1)C(=O)NC(=C)C(=O)OC [Compound 22, Methyl 2-(2-(2-(4-(((ethoxycarbonyl)amino)methyl)piperidin-1-yl)thiazole-4-carboxamido)acrylamido)acrylate] | 1 to 10 µM | – | – |
| < 100 µM | +++ (>90%) | > 20 µM | C=C(NC(=O)c1csc(N2CC[C@@H](NC(=O)OCC)C2)n1)C(=O)NC(=C)C(=O)OC [Compound 23, Methyl (R)-2-(2-(2-(3-((ethoxycarbonyl)amino)pyrrolidin-1-yl)thiazole-4-carboxamido)acrylamido)acrylate] | 1 to 10 µM | – | – |
| < 100 µM | ++ (50-90%) | > 20 µM | C=C(NC(=O)c1csc(-c2ccc(OCCOC)cc2)n1)C(=O)NC(=C)C(=O)OC [Compound 24, Methyl 2-(2-(2-(4-(2-methoxyethoxy)phenyl)thiazole-4-carboxamido)acrylamido)acrylate] | 1 to 10 µM | – | – |
| < 100 µM | ++ (50-90%) | > 20 µM | C=C(NC(=O)c1csc(-c2ccc(NC(=O)CCCCCN=[N+]=[N-])cc2)n1)C(=O)NC(=C)C(=O)OC [Compound 25, Methyl 2-(2-(2-(4-(6-azidohexanamido)phenyl)thiazole-4-carboxamido)acrylamido)acrylate] | 10 to 25 µM | – | – |
| 100 to 1000 µM (≈ 48.9 to 489 µg/mL) | ++ (50-90%) | > 20 µM | C=C(NC(=O)c1csc(-c2ccc(CNC(=O)OCCOC)cc2)n1)C(=O)NC(=C)C(=O)OC [Compound 26, Methyl 2-(2-(2-(4-((((2-methoxyethoxy)carbonyl)amino)methyl)phenyl)thiazole-4-carboxamido)acrylamido)acrylate] | 1 to 10 µM | – | – |
